In one assay the test system is saphenous artery rings. In words: Vasorelaxant effect in vitro (phenylephrine-contracted artery rings). Particulars: concentration reducing phenylephrine-induced contraction by 50%. Also noted: species or system Rabbits. As to the method:
Rabbits are anesthetized and sacrificed by intravenous injection of thiopental sodium (about 50 mg/kg) and exsanguinated. The saphenous artery is removed and divided into rings 3 mm wide. The rings are mounted singly on in each case a pair of triangular hooks open at the end and made of 0.3 mm-thick special wire (Remanium®). Each ring is placed under an initial tension in 5 ml organ baths with Krebs-Henseleit solution which is at 37° C., is gassed with carbogen and has the following composition: NaCl 119 mM; KCl 4.8 mM; CaCl2×2H2O 1 mM; MgSO4×7H2O 1.4 mM; KH2PO4 1.2 mM; NaHCO3 25 mM; glucose 10 mM; bovine serum albumin 0.001%. The force of contraction is detected with Statham UC2 cells, amplified and digitized via A/D converters (DAS-1802 HC, Keithley Instruments, Munich) and recorded in parallel on chart recorders. Contractions are induced by addition of phenylephrine.
After several (generally 4) control cycles, the substance to be investigated is added in each further run in increasing dosage, and the level of the contraction achieved under the influence of the test substance is compared with the level of the contraction reached in the last preceding run. The concentration necessary to reduce the contraction reached in the preceding control by 50% is calculated from this (IC50). The standard application volume is 5 μl. The proportion of DMSO in the bath solution corresponds to 0.1%.

Assay [1] deals with T1, recombinant guanylate cyclase reporter cell line (Rattus norvegicus, UniProt P20595).
T1 construct: expressed in transfected cells; host or cells: CHO reporter cell line
T1 sequence (P20595 1-619): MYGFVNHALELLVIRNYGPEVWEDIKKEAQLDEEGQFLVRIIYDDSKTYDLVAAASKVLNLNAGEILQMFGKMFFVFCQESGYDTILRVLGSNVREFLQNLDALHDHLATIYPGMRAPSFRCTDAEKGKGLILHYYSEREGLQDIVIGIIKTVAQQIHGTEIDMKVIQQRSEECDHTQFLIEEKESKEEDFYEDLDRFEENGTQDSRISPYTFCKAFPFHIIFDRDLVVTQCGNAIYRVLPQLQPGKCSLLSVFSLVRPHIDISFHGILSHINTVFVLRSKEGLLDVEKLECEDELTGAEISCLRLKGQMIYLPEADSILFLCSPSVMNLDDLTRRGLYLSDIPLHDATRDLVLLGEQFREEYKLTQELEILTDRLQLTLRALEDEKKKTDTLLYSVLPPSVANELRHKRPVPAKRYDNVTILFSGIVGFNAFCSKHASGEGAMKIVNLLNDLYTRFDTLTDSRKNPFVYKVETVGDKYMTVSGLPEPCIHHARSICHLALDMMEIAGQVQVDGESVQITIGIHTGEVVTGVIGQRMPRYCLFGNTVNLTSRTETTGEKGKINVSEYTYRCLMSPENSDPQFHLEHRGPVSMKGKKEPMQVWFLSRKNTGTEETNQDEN
T1 sequence (P19686 1-690 partner): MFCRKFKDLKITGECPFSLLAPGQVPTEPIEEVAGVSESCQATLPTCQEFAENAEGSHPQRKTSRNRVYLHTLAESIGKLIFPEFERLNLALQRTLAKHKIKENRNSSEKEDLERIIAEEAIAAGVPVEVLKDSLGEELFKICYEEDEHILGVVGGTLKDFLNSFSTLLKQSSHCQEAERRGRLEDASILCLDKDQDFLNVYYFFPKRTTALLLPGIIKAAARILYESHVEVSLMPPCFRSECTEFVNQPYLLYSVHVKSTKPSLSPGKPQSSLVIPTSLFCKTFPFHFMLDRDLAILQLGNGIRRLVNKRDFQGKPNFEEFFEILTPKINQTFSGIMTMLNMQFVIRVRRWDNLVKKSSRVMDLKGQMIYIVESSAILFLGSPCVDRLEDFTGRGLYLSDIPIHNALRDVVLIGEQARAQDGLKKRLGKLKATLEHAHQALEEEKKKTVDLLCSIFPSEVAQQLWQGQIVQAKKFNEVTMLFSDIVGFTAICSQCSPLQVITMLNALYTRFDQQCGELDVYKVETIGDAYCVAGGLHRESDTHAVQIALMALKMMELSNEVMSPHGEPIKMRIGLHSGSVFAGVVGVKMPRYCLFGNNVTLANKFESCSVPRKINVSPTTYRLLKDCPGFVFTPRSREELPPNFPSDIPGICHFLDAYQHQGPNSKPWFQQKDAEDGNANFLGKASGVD
Briefly: sGC-activating activity in the CHO reporter cell in vitro. The class given is cell-based. As to the method: The cellular action of the compounds according to the invention is determined at a recombinant guanylate cyclase reporter cell line, as described in F. Wunder et al., Anal. Biochem. 339, 104-112 (2005).

Assay [2] has as its target T2, soluble guanylate cyclase (sGC) (Rattus norvegicus, UniProt P20595).
T2 construct: made in house; host or cells: baculovirus/Sf9 insect cells
T2 sequence (P20595 1-619): T1 sequence (P20595 1-619)
T2 sequence (P19686 1-690 partner): T1 sequence (P19686 1-690 partner)
In words: Activating action at the sGC enzyme in vitro (PPi detection, luciferase). The class given is biochemical. The settings on record: for EC50: read-out: EC50 (concentration at 50% of maximum efficacy), activating action at the sGC enzyme. As to the method:
Soluble guanylate cyclase (sGC) converts on stimulation GTP into cGMP and pyrophosphate (PPi). PPi is detected with the aid of the assay described below. The signal produced in the assay increases as the reaction progresses and serves as a measure of the sGC enzyme activity under the given stimulation.
To carry out the assay, 29 μl of enzyme solution [0-10 nM soluble guanylate cyclase (prepared according to Honicka et al., J. Mol. Med. 77, 14-23 (1999)) in 50 mM TEA, 2 mM MgCl2, 0.1% BSA (fraction V), 0.005% Brij®, pH 7.5] are initially introduced into a microplate, and 1 μl of the substance to be tested (as a serially diluted solution in DMSO) is added. The mixture is incubated at room temperature for 10 min. Then 20 μl of detection mix [1.2 nM Firefly Luciferase (Photinus pyralis luciferase, Promega), 29 μM dehydroluciferin (prepared according to Bitler & McElroy, Arch. Biochem. Biophys. 72, 358 (1957)), 122 μM luciferin (Promega), 153 μM ATP (Sigma) and 0.4 mM DTT (Sigma) in 50 mM TEA, 2 mM MgCl2, 0.1% BSA (fraction V), 0.005% Brij®, pH 7.5] are added. The enzyme reaction is started by adding 20 μl of substrate solution [1.25 mM guanosine 5′-triphosphate (Sigma) in 50 mM TEA, 2 mM MgCl2, 0.1% BSA (fraction V), 0.005% Brij®, pH 7.5] and measured continuously in a luminometer. The extent of the stimulation by the substance to be tested can be determined relative to the signal of the unstimulated reaction.
The activation of heme-free guanylate cyclase is examined by addition of 25 μM of 1H-1,2,4-oxadiazolo[4,3-a]quinoxalin-1-one (ODQ) to the enzyme solution and subsequent incubation for 30 minutes and compared to the stimulation of the native enzyme.

For orientation: IC50 means the concentration needed to halve the response being measured. A low value points to greater potency. For `CC1(C(=O)O)Cc2cccc(NC(=O)C(c3ccc(CN4N=C(c5ccccc5)OCC4=O)cc3)C3CCCC3)c2C1` (single isomer, unassigned) [Example 46, 4-[(Cyclopentyl{4-[(5-oxo-2-phenyl-5,6-dihydro-4H-1,3,4-oxadiazin-4-yl)methyl]phenyl}-acetyl)amino]-2-methyl-2,3-dihydro-1H-indene-2-carboxylic acid], the half-inhibitory concentration (IC50) with saphenous artery rings (Oryctolagus cuniculus) was found to be 110 nM. Moreover, the “MEC (minimum effective concentration), sGC-activating activity in the CHO reporter cell” value (“MEC … in the CHO reporter cell” for short) in assay [1] turned out to be 3 nM. Moreover, in assay [2], the “MEC (minimum effective concentration), activating action at the sGC enzyme” value (shortened to “MEC … at the sGC enzyme”) came out at 4.1 nM and the EC50 was 130 nM.
Take `CCC(C)C(C(=O)Nc1cccc(CCC(=O)O)c1C)c1ccc(CN2N=C(c3ccccc3)OCC2=O)cc1` (single isomer, unassigned) [Example 77, 3-{2-Methyl-3-[(3-methyl-2-{4-[(5-oxo-2-phenyl-5,6-dihydro-4H-1,3,4-oxadiazin-4-yl)methyl]phenyl}pentanoyl)amino]phenyl}propanoic acid]: the IC50 in the assay with saphenous artery rings (Oryctolagus cuniculus) was found to be 625 nM. The “MEC … in the CHO reporter cell” value in assay [1] was 1 nM. In addition, in assay [2], the “MEC … at the sGC enzyme” value stood at 0.4 nM and the EC50 was found to be 24 nM.
The molecule `CCC(C)C(C(=O)Nc1cccc2c1CC(C)(C(=O)O)C2)c1ccc(CN2N=C(c3ccccc3)OCC2=O)cc1` (single isomer, unassigned) [Example 86, 2-Methyl-4-[(3-methyl-2-{4-[(5-oxo-2-phenyl-5,6-dihydro-4H-1,3,4-oxadiazin-4-yl)methyl]-phenyl}pentanoyl)amino]-2,3-dihydro-1H-indene-2-carboxylic acid] returned an IC50 with saphenous artery rings (Oryctolagus cuniculus) of 180 nM. Also, the “MEC … in the CHO reporter cell” value in assay [1] turned out to be 1 nM. Besides, in assay [2], the “MEC … at the sGC enzyme” value came to 1.4 nM and the EC50 is 73 nM.
The matching figures for `Cc1c(CCC(=O)O)cccc1NC(=O)C(c1ccc(CN2N=C(c3ccccc3)OCC2=O)cc1)C1CCCC1` (single isomer, unassigned) [Example 115, 3-{3-[(cyclopcntyl{4-[(5-oxo-2-phcnyl-5,6-dihydro-4H-1,3,4-oxadiazin-4-yl)mcthyl]phcnyl}acetyl)amino]-2-mcthylphcnyl}propanoic acid]: 163 nM, 3 nM, 1.6 nM and 40 nM.
As for `O=C(O)C1Cc2cccc(NC(=O)C(c3ccc(CN4N=C(c5ccccc5)OCC4=O)cc3)C3CCCC3)c2C1` (single isomer, unassigned) [Example 126, 4-[(cyclopcntyl{4-[(5-oxo-2-phcnyl-5,6-dihydro-4H-1,3,4-oxadiazin-4-yl)mcthyl]phcnyl}acetyl)amino]-2,3-dihydro-1H-indenc-2-carboxylic acid], the IC50 with saphenous artery rings (Oryctolagus cuniculus) came to 145 nM. Besides, in assay [1], the “MEC … in the CHO reporter cell” value came out at 30 nM. For the same molecule, in assay [2], the “MEC … at the sGC enzyme” value stood at 10 nM and the EC50 came out at 320 nM.
As to `CC(C)(Cc1cccc(NC(=O)C(c2ccc(Cn3nc(-c4ccccc4)ccc3=O)cc2)C2CCCC2)c1)C(=O)O` (single isomer, unassigned) [Example 138, 3-{3-[(cyclopentyl{4-[(6-oxo-3-phenylpyridazin-1(6H)-yl)methyl]phenyl}acetyl)amino]phenyl}-2,2-dimethylpropanoic acid], half-maximal inhibition in the assay on saphenous artery rings (Oryctolagus cuniculus) (IC50) was put at 52 nM. Further, the “MEC … in the CHO reporter cell” value in assay [1] is on record as 10 nM. Moreover, in assay [2], the “MEC … at the sGC enzyme” value is on record as 5.1 nM and the EC50 was 330 nM.
In turn, `CC(C(C(=O)Nc1cccc(CC2(C(=O)O)CC2)c1)c1ccc(CN2N=C(c3ccccc3)OCC2=O)cc1)C(F)(F)F` (single isomer, unassigned) [Example 164, 1-{3-[(4,4,4-trifluoro-3-methyl-2-{4-[(5-oxo-2-phenyl-5,6-dihydro-4H-1,3,4-oxadiazin-4-yl)methyl]phenyl}-butanoyl)amino]benzyl}cyclopropanecarboxylic acid] returned an IC50 in the assay on saphenous artery rings of 26 nM. Further, the “MEC … in the CHO reporter cell” value in assay [1] was 0.3 nM. Besides, in assay [2], the “MEC … at the sGC enzyme” value is given as 0.5 nM and the EC50 worked out at 6.1 nM.
`CCC(C)C(C(=O)Nc1cccc(CC(C)(C)C(=O)O)c1)c1ccc(CN2N=C(c3ccccc3)OCC2=O)cc1` (centres unmarked) [Example 143, 2,2-dimethyl-3-{3-[(3-methyl-2-{4-[(5-oxo-2-phenyl-5,6-dihydro-4H-1,3,4-oxadiazin-4-yl)methyl]phenyl}-pentanoyl)amino]phenyl}propanoic acid] gave an IC50 in the assay with saphenous artery rings (Oryctolagus cuniculus) of 345 nM. Further, the “MEC … in the CHO reporter cell” value in assay [1] is listed as 3 nM.
In the case of `CC(C(C(=O)Nc1cc(CCC(=O)O)ccc1F)c1ccc(CN2N=C(c3ccccc3)OCC2=O)cc1)C(F)(F)F` (centres unmarked) [Example 185, 3-{4-fluoro-3-[(4,4,4-trifluoro-3-methyl-2-{4-[(5-oxo-2-phenyl-5,6-dihydro-4H-1,3,4-oxadiazin-4-yl)methyl]-phenyl}butanoyl)amino]phenyl}propanoic acid], the IC50 in the assay with saphenous artery rings (Oryctolagus cuniculus) turned out to be 64 nM. Besides, the “MEC … in the CHO reporter cell” value in assay [1] amounted to 0.3 nM.

Source of the values: patent US8987256B2, “Oxo-heterocyclic substituted carboxylic acid derivatives and the use thereof” (Bayer Intellectual Property GmbH, priority 2008, dated 2015).
